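All cell lines were grown in 96-well plates and treated with compound for 48 hours. TGI denotes the concentration required for complete inhibition of growth.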
Experiments:
Assay in all cases: inhibition of tumour cell growth, NCI panel, 48 h
[1] = tested on: CCRF-CEM leukemia
[2] = tested on: ACHN renal
[3] = tested on: LXFL 529 NSCLC
[4] = tested on: SF-539 CNS
[5] = tested on: UACC-62 melanoma
[6] = tested on: EKVX NSCLC
[7] = tested on: M19-MEL melanoma
[8] = tested on: SW-620 colon
[9] = tested on: HOP-18 NSCLC
[10] = tested on: SNB-75 CNS
[11] = tested on: CAKI-1 renal
[12] = tested on: KM12 colon
[13] = tested on: MALME-3M melanoma
[14] = tested on: HOP-92 NSCLC
[15] = tested on: SK-OV-3 ovarian
[16] = tested on: HOP-62 NSCLC
[17] = tested on: RXF 393 renal
[18] = tested on: DMS 273 small cell lung
[19] = tested on: OVCAR-3 ovarian
[20] = tested on: RPMI-8226 leukemia
[21] = tested on: M14 melanoma
[22] = tested on: OVCAR-5 ovarian
[23] = tested on: A549 NSCLC
[24] = tested on: HT29 colon
[25] = tested on: LOX IMVI melanoma
[26] = tested on: COLO 205 colon
[27] = tested on: OVCAR-4 ovarian
[28] = tested on: NCI-H23 lung
[29] = tested on: NCI-H460 lung
[30] = tested on: NCI-H522 lung
[31] = tested on: DMS 114 small cell lung
[32] = tested on: HCC-2998 colon
[33] = tested on: DLD-1 colon
[34] = tested on: NCI-H226 lung
[35] = tested on: OVCAR-8 ovarian
[36] = tested on: KM20L2 colon
[37] = tested on: TK-10 renal
[38] = tested on: K-562 leukemia
[39] = tested on: MOLT-4 leukemia
[40] = tested on: SNB-19 CNS
[41] = tested on: HL-60(TB) leukemia
[42] = tested on: U251 CNS
[43] = tested on: A498 renal
[44] = tested on: HCT-15 colon
[45] = tested on: 786-0 renal
[46] = tested on: SF-268 CNS
[47] = tested on: IGROV1 ovarian
[48] = tested on: SN12C renal
[49] = tested on: SNB-78 CNS
[50] = tested on: SF-295 CNS
[51] = tested on: SK-MEL-28 melanoma
[52] = tested on: SK-MEL-2 melanoma
[53] = tested on: UACC-257 melanoma
[54] = tested on: SK-MEL-5 melanoma
[55] = tested on: HCT-116 colon
[56] = tested on: UO-31 renal
[57] = tested on: MDA-MB-231 breast
[58] = tested on: PC-3 prostate
[59] = tested on: MDA-N
[60] = tested on: MCF7 breast
[61] = tested on: T-47D breast
[62] = tested on: NCI/ADR-RES ovarian
[63] = tested on: DU-145 prostate
[64] = tested on: BT-549 breast
[65] = tested on: SR leukemia
[66] = tested on: HS 578T breast
[67] = tested on: MDA-MB-435

With `C/C(CN1C(=O)c2ccccc2C1=O)=N\NS(=O)(=O)c1ccc(Br)cc1` the TGI [1] was over 100 µM, the TGI [2] was over 100 µM and the TGI [3] was over 100 µM. For the same compound, the TGI [4] was over 100 µM, the TGI [5] was over 100 µM and the TGI [6] was over 100 µM. For the same compound, the TGI [7] was over 100 µM, the TGI [8] was over 100 µM and the TGI [9] was over 100 µM. For the same compound, the TGI [10] was over 100 µM, the TGI [11] was over 100 µM and the TGI [12] was over 100 µM. For the same compound, the TGI [13] was over 100 µM, the TGI [14] was over 100 µM and the TGI [15] was over 100 µM. The TGI [16] was over 100 µM, the TGI [17] was over 100 µM and the TGI [18] was over 100 µM. It also gave a TGI [19] of over 100 µM, a TGI [20] of over 100 µM and a TGI [21] of over 100 µM. The TGI [22] was over 100 µM, the TGI [23] was over 100 µM and the TGI [24] was over 100 µM. For the same compound, the TGI [25] was over 100 µM, the TGI [26] was over 100 µM and the TGI [27] was over 100 µM. The TGI [28] was over 100 µM, the TGI [29] was over 100 µM and the TGI [30] was over 100 µM. It also gave a TGI [31] of 68.8 µM, a TGI [32] of over 100 µM and a TGI [33] of over 100 µM. For the same compound, the TGI [34] was over 100 µM, the TGI [35] was over 100 µM and the TGI [36] was over 100 µM. For the same compound, the TGI [37] was over 100 µM, the TGI [38] was over 100 µM and the TGI [39] was over 100 µM. The TGI [40] was over 100 µM, the TGI [41] was over 100 µM and the TGI [42] was over 100 µM. The TGI [43] was over 100 µM, the TGI [44] was over 100 µM and the TGI [45] was over 100 µM. It also gave a TGI [46] of over 100 µM, a TGI [47] of over 100 µM and a TGI [48] of over 100 µM. The TGI [49] was over 100 µM, the TGI [50] was over 100 µM and the TGI [51] was over 100 µM. The TGI [52] was over 100 µM, the TGI [53] was over 100 µM and the TGI [54] was over 100 µM. It also gave a TGI [55] of over 100 µM and a TGI [56] of over 100 µM.

With `COc1ccc(/C=C(\Cl)c2ccc(OC)c(OC)c2)cc1OC` the TGI [1] was over 100 µM, the TGI [2] was over 100 µM and the TGI [3] was over 100 µM. It also gave a TGI [4] of over 100 µM, a TGI [5] of over 100 µM and a TGI [6] of over 100 µM. The TGI [7] was over 100 µM, the TGI [57] was over 100 µM and the TGI [8] was over 100 µM. The TGI [10] was over 100 µM, the TGI [11] was over 100 µM and the TGI [58] was over 100 µM. The TGI [12] was over 100 µM, the TGI [13] was over 100 µM and the TGI [14] was over 100 µM. It also gave a TGI [15] of over 100 µM, a TGI [59] of over 100 µM and a TGI [16] of over 100 µM. The TGI [17] was over 100 µM, the TGI [60] was over 100 µM and the TGI [18] was over 100 µM. For the same compound, the TGI [19] was over 100 µM, the TGI [20] was over 100 µM and the TGI [61] was over 100 µM. The TGI [21] was over 100 µM, the TGI [62] was over 100 µM and the TGI [22] was over 100 µM. For the same compound, the TGI [23] was over 100 µM, the TGI [24] was over 100 µM and the TGI [25] was over 100 µM. It also gave a TGI [26] of over 100 µM, a TGI [27] of over 100 µM and a TGI [28] of over 100 µM. It also gave a TGI [29] of over 100 µM, a TGI [30] of over 100 µM and a TGI [63] of over 100 µM. The TGI [31] was over 100 µM, the TGI [32] was over 100 µM and the TGI [33] was over 100 µM. It also gave a TGI [34] of over 100 µM, a TGI [35] of over 100 µM and a TGI [36] of over 100 µM. It also gave a TGI [37] of over 100 µM, a TGI [64] of over 100 µM and a TGI [38] of over 100 µM. The TGI [39] was over 100 µM, the TGI [40] was over 100 µM and the TGI [41] was over 100 µM. The TGI [65] was over 100 µM, the TGI [42] was over 100 µM and the TGI [43] was over 100 µM. The TGI [44] was over 100 µM, the TGI [66] was over 100 µM and the TGI [45] was over 100 µM. For the same compound, the TGI [46] was over 100 µM, the TGI [47] was over 100 µM and the TGI [67] was over 100 µM. The TGI [48] was over 100 µM, the TGI [50] was over 100 µM and the TGI [51] was over 100 µM. The TGI [52] was over 100 µM, the TGI [53] was over 100 µM and the TGI [54] was over 100 µM. The TGI [55] was over 100 µM and the TGI [56] was over 100 µM.
